The results in this text go back to patent publication US6956040B2, “Oxazolidinone piperazinyl derivatives as potential antimicrobials” (Ranbaxy Laboratories Limited, priority 2001, dated 2005).

Assay [1] concerns S. pneumoniae. As to the kind of experiment: Summary of in vitro activity (MIC) against S. pneumoniae. The assay is classed as cell-based, Streptococcus pneumoniae. The conditions noted are these: S. pneumoniae; for MIC50 / MIC90: Number 19. Here is the method:
(§1) The compounds of the invention display antibacterial activity when tested by the agar incorporation method. The following minimum inhibitory concentrations (μg/ml) were obtained for representative compounds of the invention which are given below in the following tables.
(§2) Briefly, the compounds were dissolved in DMSO and doubling dilution of the compounds were incorporated into Meuller Hilton agar before solidification. Inoculum was prepared by suspending 4 to 5 colonies into 5 ml of normal saline solution and adjusting the turbidity to 0.5 Macfarland turbidity standard tables (1.5×10^8 CFU/ml), after appropriate dilutions, 10^4 CFU/spot was transfered into the surface of dried plate and incubated for 18 hours (24 hours for MRSN studies). The concentration showing no growth of the inoculated culture was recorded as the MIC. Appropriate ATCC standard strains were simultaneously tested and result recorded only when the MIC's against standard antibiotics were within the acceptable range.

For assay [2], the system named is S. pyogenes 19615. Kind of assay: MIC, agar incorporation method. The assay is classed as cell-based, Streptococcus pyogenes. The conditions noted are these: S. pyogenes 19615; agar incorporation. Put shortly:
(§3)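 Compounds in DMSO were added as doubling dilutions to molten Mueller Hinton agar. Spots of 10^4 CFU, diluted from a 0.5 McFarland suspension (1.5×10^8 CFU/ml), were incubated 18 hours (24 hours for MRSN studies). MIC (μg/ml) is the lowest concentration with no visible growth.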

For assay [3], the system named is MRSA 562. As to the kind of experiment: MIC, agar incorporation method. The assay is classed as cell-based, Staphylococcus aureus. Particulars: MRSA 562. Put shortly: (§4)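 MIC values (μg/ml) come from plates of Mueller Hinton agar with incorporated twofold compound series, inoculated at 10^4 CFU/spot. Incubation lasts 18 h (24 h in MRSN work); results count only when standard antibiotics against ATCC strains fall within acceptable ranges.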

Assay [4] has as its system MRSA 33. Kind of assay: MIC, agar incorporation method. The assay is classed as cell-based, Staphylococcus aureus. The conditions noted are these: MRSA 33; agar incorporation. In a few lines: as §4
Assay [5] concerns S. aureus. As to the kind of experiment: Summary of in vitro activity (MIC) against S. aureus. The assay is classed as cell-based, Staphylococcus aureus. The conditions noted are these: S. aureus; for MIC50 / MIC90: Number 8. Here is the method: as §1, §2
Assay [6] relates to S. pneum AB 34. As to the kind of experiment: MIC, agar incorporation method. The assay is classed as cell-based, Streptococcus pneumoniae. The conditions noted are these: S. pneum AB 34; agar incorporation. Put shortly:
as §4

Assay [7] concerns MRSA 562. Kind of assay: In vivo activity against MRSA 562 (ED50). The arrangement: species or system Staphylococcus aureus.
Assay [8] has as its system MRSA 15187. As to the kind of experiment: MIC, agar incorporation method. Type of assay: cell-based, Staphylococcus aureus. Particulars: MRSA 15187; agar incorporation. In a few lines:
as §3

The subject of assay [9] is S. aureus 25923. As to the kind of experiment: MIC, agar incorporation method. The assay is classed as cell-based, Staphylococcus aureus. The conditions noted are these: S. aureus 25923; agar incorporation. In a few lines:
as §3

For assay [10], the system named is G+ve. Kind of assay: Summary of in vitro activity (MIC) against G+ve bacteria. The assay is classed as cell-based. Particulars: for MIC50 / MIC90: G+ve, Number 49. Here is the method: as §1, §2
For assay [11], the system named is E. faecalis. As to the kind of experiment: Summary of in vitro activity (MIC) against E. faecalis. The assay is classed as cell-based, Enterococcus faecalis. The conditions noted are these: E. faecalis; for MIC50 / MIC90: Number 7. Here is the method: as §1, §2
The nature of assay [12]: Changes in MIC under different conditions: Agar MIC. Type of assay: cell-based. Particulars: strain not given. As to the method:
as §1, §2

A short description of assay [13]: Changes in MIC under different conditions: Broth MIC. The conditions noted are these: strain not given. Type of assay: cell-based.
Assay [14] relates to E. faecalis 29212. Kind of assay: MIC, agar incorporation method. The conditions noted are these: E. faecalis 29212; agar incorporation. The assay is classed as cell-based, Enterococcus faecalis. Put shortly: as §3
Assay [15] deals with S. pneum 6303. Kind of assay: MIC, agar incorporation method. Type of assay: cell-based, Streptococcus pneumoniae. Particulars: S. pneum 6303; agar incorporation. Put shortly: as §3
The subject of assay [16] is VRE 6A. As to the kind of experiment: MIC, agar incorporation method. The assay is classed as cell-based, Enterococcus faecium. The conditions noted are these: VRE 6A; agar incorporation. In a few lines:
as §3

In brackets after ≈: the same amount, converted by molar mass.

Usually MIC50 stands for an inhibitory concentration at the 50% level, which refers to growth in some studies and to a panel of isolates in others. Read a high MIC50 as lower susceptibility. As a reminder, the MIC90 is an inhibitory concentration at the 90% level, which refers to growth in some studies and to a panel of isolates in others. Lower therefore signals higher susceptibility. The MIC is the least concentration at which growth counts as inhibited. A low value points to inhibition by little substance.

Take `CC(=O)NC[C@H]1CN(c2ccc(N3CCN(C(=O)c4ccc([N+](=O)[O-])s4)CC3)c(F)c2)C(=O)O1.Cl` [Compound No. 29, (S)-N[[3-[3-Fluoro-4-[N-1[4-(5-nitro-2-thienoyl)]piperazinyl]-phenyl]2-oxo-5-oxazolidinyl]methyl]acetamide hydrochloride]: the MIC50 in assay [1] is 1 µg/mL; in [5], 0.064 µg/mL; in assay [10] it was 1 µg/mL; in [11], 1 µg/mL. Besides, the MIC90 was found to be 1 µg/mL in [1], 0.25 µg/mL in assay [5], 1 µg/mL in [10] and 1 µg/mL in assay [11]. Moreover, the MIC in [2] was 1 µg/mL; in assay [3] (Table 5), under 0.1 µg/mL; in [3] (agar incorporation, Table 1), under 0.1 µg/mL; in assay [4], under 0.1 µg/mL; in assay [6] it was 1 µg/mL; in assay [8], under 0.1 µg/mL. Moreover, the minimal inhibitory concentration (MIC) was 0.25 µg/mL in assay [9], 1 µg/mL in assay [14], 1 µg/mL in [15] and 0.5 µg/mL in [16]. The “ED50 (mg/kg body weight) PO” value in assay [7] was over 25 mg/kg body weight. In [12], the “Agar MIC” value is under 0.1 µg/mL. For the same compound, the “Broth MIC +50% Sheep serum” value in assay [13] came out at 0.5 µg/mL. The “Broth MIC Normal MH broth” value in [13] was determined as 0.25 µg/mL.

Regarding `CC(=O)NC[C@H]1CN(c2ccc(N3CCC(N(C)C(=O)c4ccc([N+](=O)[O-])o4)CC3)c(F)c2)C(=O)O1` [Compound No. 44], the “Geometric Mean of in vitro activity (MIC)” value in assay [1] is 0.96 µg/mL; in assay [5], 0.11 µg/mL; in [10] (Gram +ve), 0.31 µg/mL; in assay [11], 0.11 µg/mL. The MIC50 in [1] worked out at 1 µg/mL (≈ 1.99 µM); in assay [5], 0.064 µg/mL (≈ 0.127 µM); in assay [10], 0.5 µg/mL (≈ 0.993 µM); in [11], 0.064 µg/mL (≈ 0.127 µM). The MIC90 in [1] was 2 µg/mL (≈ 3.97 µM); in assay [5], 0.25 µg/mL (≈ 0.497 µM); in assay [10] it was 2 µg/mL (≈ 3.97 µM); in [11] it was 0.25 µg/mL (≈ 0.497 µM). In addition, the MIC in assay [2] was 0.5 µg/mL (≈ 0.993 µM); in [3] (Table 5) it was under 0.1 µg/mL; in assay [3] (agar incorporation, Table 1), under 0.1 µg/mL; in assay [4], under 0.1 µg/mL; in assay [6], 2 µg/mL (≈ 3.97 µM); in assay [8], under 0.1 µg/mL. Further, the MIC in [9] is 0.25 µg/mL (≈ 0.497 µM); in assay [14], 0.25 µg/mL (≈ 0.497 µM); in assay [15], 2 µg/mL (≈ 3.97 µM); in assay [16], under 0.1 µg/mL. Moreover, the “ED50 (mg/kg body weight) PO” value in assay [7] is over 25 mg/kg body weight. The “Agar MIC” value in assay [12] was under 0.1 µg/mL. In addition, in [13], the “Broth MIC +50% Sheep serum” value was 0.25 µg/mL. For the same compound, the “Broth MIC Normal MH broth” value in [13] was under 0.1 µg/mL.
